Results taken from US11071731B2, “Allosteric modulators of the mu opioid receptor” (Chiromics, LLC, priority 2017, dated 2021).

How the values were obtained:
mu opioid receptor (MOR) [1] = target: T1, mu opioid receptor (MOR) (Homo sapiens, UniProt P35372); assay: PathHunter β-arrestin recruitment assay, PAM mode with EC20 endomorphin-1; format: cell-based; conditions: for β-arr Max. Resp.: maximal response for β-arrestin recruitment
Procedure, shortened: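 β-Arrestin recruitment to the receptor was tracked by chemiluminescent β-galactosidase activity from complementing fragments (ED on receptor, EA on β-arrestin). Per-compound outputs were EC50 and percent maximal response.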

mu opioid receptor (MOR) [2] = target: T1, mu opioid receptor (MOR); assay: Hit Hunter cAMP signaling assay (adenylyl cyclase inhibition), PAM mode with EC20 endomorphin-1; format: cell-based; conditions: for cAMP Max. Resp.: maximal response for adenylyl cyclase inhibition
[3] = β-arrestin recruitment, read-out: β-arr. EC50
[4] = adenylyl cyclase inhibition, read-out: cAMP EC50
[5] = cAMP EC50, adenylyl cyclase inhibition

T1 sequence (P35372 whole entry, the tested form may be a part): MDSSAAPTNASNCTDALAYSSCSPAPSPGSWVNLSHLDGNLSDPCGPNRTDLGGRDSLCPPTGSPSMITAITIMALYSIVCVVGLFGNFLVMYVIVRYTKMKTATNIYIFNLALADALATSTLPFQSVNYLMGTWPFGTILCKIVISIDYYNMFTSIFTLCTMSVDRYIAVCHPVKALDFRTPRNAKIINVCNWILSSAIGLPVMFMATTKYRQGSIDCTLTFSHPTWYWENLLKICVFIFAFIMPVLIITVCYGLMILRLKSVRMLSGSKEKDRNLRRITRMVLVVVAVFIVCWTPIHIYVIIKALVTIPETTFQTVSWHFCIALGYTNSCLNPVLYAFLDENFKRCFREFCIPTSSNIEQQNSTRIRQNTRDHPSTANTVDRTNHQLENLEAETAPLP

SMILES	β-arr Max. Resp. (mu opioid receptor (MOR) [1])	EC50 (mu opioid receptor (MOR) [1]; [3]) [nM]	EC50 (mu opioid receptor (MOR) [2]; [4]) [nM]	cAMP Max. Resp. (mu opioid receptor (MOR) [2])	EC50 (mu opioid receptor (MOR) [2]; [5]) [nM]	β-arrestin Max Response (mu opioid receptor (MOR) [1]; β-arrestin recruitment, activity switching by MOR PAMs)	EC50 (mu opioid receptor (MOR) [1]; β-arrestin recruitment, activity switching by MOR PAMs, read-out: β-arrestin EC50) [nM]	cAMP Max Resp. (mu opioid receptor (MOR) [2]; adenylyl cyclase inhibition, activity switching by MOR PAMs)	EC50 (mu opioid receptor (MOR) [2]; adenylyl cyclase inhibition, activity switching by MOR PAMs, read-out: cAMP EC50) [nM]
[O-][S+]1CCN(c2nc(Cl)ncc2F)C(c2cc(F)cc(C(F)(F)F)c2)C1 (mixture of isomers) [Compound 302]	E (E represents a maximal response of 40-60%)	> 2100	> 2100	D (D represents a maximal response of < 40%)	–	–	–	–	–
O=S(=O)(Cc1ccc(Cl)c(Cl)c1)N1CCCCC1c1cccc(C(F)(F)F)c1 (stereo not shown) [Compound 23]	F (F represents a maximal response of > 60%)	> 2100	> 2100	D (D represents a maximal response of < 40%)	–	–	–	–	–
[2H]C1(c2ccc(F)c(Br)c2)C(F)CCCN1c1nc(Cl)ncc1F (stereo not shown) [compound 214]	F (F represents a maximal response of > 60%)	–	–	E (E represents a maximal response of 40-60%)	–	–	–	–	–
O=S(=O)(c1ccc(Cl)cc1)N1CCCCC1c1ccc(F)c(Br)c1 (single isomer, unassigned) [compound 56]	F (F represents a maximal response of > 60%)	> 2100	700 to 2100	E (E represents a maximal response of 40-60%)	–	–	–	–	–
COc1ccc(C2N(S(=O)(=O)c3ccc(Cl)cc3)CCC2(F)C(F)(F)F)cc1Br (mixture of isomers) [Compound 103]	F (F represents a maximal response of > 60%)	> 2100	700 to 2100	D (D represents a maximal response of < 40%)	–	–	–	–	–
[2H]C1(c2ccc(F)c(Br)c2)C(F)CCCN1Cc1cccc(Cl)c1 (stereo not shown) [compound 203]	F (F represents a maximal response of > 60%)	> 2100	–	D (D represents a maximal response of < 40%)	< 700	–	–	–	–
O=S(=O)(Cc1ccccc1)N1C2CCC(C2)C1c1ccc(F)c(Br)c1 (stereo not shown) [Compound 182]	E (E represents a maximal response of 40-60%)	> 2100	> 2100	D (D represents a maximal response of < 40%)	–	–	–	–	–
Fc1ccc(C2CCCCN2Cc2ccnc(Cl)c2)cc1Cl (stereo not shown) [compound 174]	F (F represents a maximal response of > 60%)	700 to 2100	–	E (E represents a maximal response of 40-60%)	700 to 2100	–	–	–	–
Fc1cnc(Cl)nc1N1CCCCCC1c1cccc(C(F)(F)F)n1 (stereo not shown) [compound 253]	F (F represents a maximal response of > 60%)	> 2100	> 2100	E (E represents a maximal response of 40-60%)	–	–	–	–	–
O=S(=O)(c1ccc(Cl)cc1)N1CCCCC1c1ccc(F)c(C(F)(F)F)c1 (racemic) [compound 55]	F (F represents a maximal response of > 60%)	> 2100	700 to 2100	E (E represents a maximal response of 40-60%)	–	F (F represents a maximal response of >60%)	> 2100	D (D represents a maximal response of < 40%)	> 2100
Fc1cnc(Cl)nc1N1CCCCC1c1cnc2cnccn12 (stereo not shown) [compound 338]	D (D represents a maximal response of < 40%)	< 700	–	D (D represents a maximal response of < 40%)	< 700	–	–	–	–
O=S(=O)(c1ccc(Cl)cc1)N1CCCCC1c1ccc(Cl)c(Br)c1 (racemic) [compound 74]	F (F represents a maximal response of > 60%)	> 2100	> 2100	E (E represents a maximal response of 40-60%)	–	–	–	–	–
OCCNc1cccc(C2CCCCN2Cc2cc(Cl)ccc2F)n1 (stereo not shown) [compound 141]	D (D represents a maximal response of < 40%)	> 2100	> 2100	D (D represents a maximal response of < 40%)	–	–	–	–	–
[2H]C1(c2cccc(C(F)(F)F)c2)C(F)CCCN1Cc1cccc(Cl)c1 (stereo not shown) [compound 204]	F (F represents a maximal response of > 60%)	700 to 2100	–	F (F represents a maximal response of > 60%)	700 to 2100	–	–	–	–
Fc1cc(C2COCCN2c2nc(Cl)ncc2F)cc(C(F)(F)F)c1 (single isomer, unassigned) [Compound 344]	D (D represents a maximal response of < 40%)	< 700	< 700	D (D represents a maximal response of < 40%)	–	–	–	–	–
O=S(=O)(Cc1ccc(Cl)cc1)N1CCCCC1c1cccc(C(F)(F)F)c1 (stereo not shown) [Compound 22]	F (F represents a maximal response of > 60%)	> 2100	> 2100	D (D represents a maximal response of < 40%)	–	–	–	–	–
Fc1cnc(Cl)cc1N1CCCCC1c1cccc(C(F)(F)F)c1 (stereo not shown) [compound 261]	F (F represents a maximal response of > 60%)	700 to 2100	–	D (D represents a maximal response of < 40%)	> 2100	–	–	–	–
